# Reference: patent publication US8192962B2, “Processes for detecting toxic substances” (Daikin Industries, Ltd., priority 2001, dated 2012)
# Tested on: Metabolism protein genes
# Test: DNA chip mRNA expression in yeast, metabolism protein genes (Table 7)
# Assay type: cell-based, Saccharomyces cerevisiae S288C
# Procedure: Yeast (Saccharomyces cerevisiae S288C (α SUC2mal mel gap2 CUP1)) were incubated at 25° C. on YPD medium (yeast extract 1%, polypepton 2%, glucose 2%). One of toxic chemical substances was added to the cells at logarithmic growth phase, and the cells were further incubated for two hours. Cells were cultured without any chemical substance in the same condition, and were used as control. Concentrations of the chemical substances were defined to inhibit the growth of the yeast but not lead to death.
# After completion of the incubation, the culture was centrifuged to collect the cells. To the cells, sodium acetate buffer (50 mM sodium acetate, 10 mM EDTA, 1% SDS) was added, and the mixture was shaken at 65° C. for five minutes, followed by returning to room temperature, and obtaining the supernatant, of which the procedures were repeated two times. To the supernatant, ½ amount of a solution of phenol/chloroform was added, and the mixture was centrifuged to give a supernatant, which was added with an equal amount of chloroform, and the mixture was centrifuged to give a supernatant. To the supernatant, an equal amount of isopropanol containing 0.3 M sodium acetate was added, and the mixture was allowed to stand at room temperature for 30 minutes, after which the mixture was centrifuged to give a sediment of the whole RNAs. Seventy % ethanol was added to the sediment, and the mixture was again centrifuged to give a sediment, which was then dried and dissolved in water. mRNA was isolated from the whole RNAs as followings. In view of the fact that a poly A chain is attached to the 3′ terminus of mRNA, a polynucleotide having a poly T structure which was immobilized on the surface of latex beads was used to trap the mRNA, and then the mRNA was washed and eluted with spine column (Oligotex-dT30<Super>mRNA Purification Kit, Takara). Reverse transcription of the mRNA was conducted with a reverse transcriptase (Super Script II Reverse Transcriptase; catalogue No. 18064-014, GibcoBRL) using fluorescence-labeled nucleotides to give cDNAs that were introduced with Cy3-dUTP or Cy5-dUTP during the reverse transcription.
# The labeled cDNAs were dissolved in TE buffer (10mM Tris-HCl/1 mM EDTA, pH8.0), and the solution was dropped on the DNA chip containing the whole genes of yeast (DNA Chip Research Inc. Japan) so that the cDNAs were hybridized on the DNA chip at 65° C. for over 12 hours. The fluoresces intensity of the DNA chip was read with a scanner, and the ratio relative to the fluorescence intensity resulting from the absence of chemical substance was estimated as the following, which is shown in Tables 1 to 9: […]
smiles,measurement,setting,value
"C[S+](C)[O-] [(15), dimethylsulfoxide]",level of expressed mRNA in the presence/in the absence of chemical substance,yeast gene YER081W,0.5
same,The level of expressed mRNA in the presence of chemical substance/The level of expressed mRNA in the absence of chemical substance,yeast gene YER096W,1.4
same,level of expressed mRNA in the presence/in the absence of chemical substance,yeast gene YER120W,1.5
same,The level of expressed mRNA in the presence of chemical substance/The level of expressed mRNA in the absence of chemical substance,yeast gene YER178W,1.8
same,level of expressed mRNA in the presence/in the absence of chemical substance,yeast gene YFL011W,1.7
same,The level of expressed mRNA in the presence of chemical substance/The level of expressed mRNA in the absence of chemical substance,yeast gene YFL014W,6.3
same,The level of expressed mRNA in the presence of chemical substance/The level of expressed mRNA in the absence of chemical substance,yeast gene YFL030W,1.1
same,The level of expressed mRNA in the presence of chemical substance/The level of expressed mRNA in the absence of chemical substance,yeast gene YFL056C,5.0
same,The level of expressed mRNA in the presence of chemical substance/The level of expressed mRNA in the absence of chemical substance,yeast gene YFR015C,0.4
same,The level of expressed mRNA in the presence of chemical substance/The level of expressed mRNA in the absence of chemical substance,yeast gene YFR047C,0.6
same,The level of expressed mRNA in the presence of chemical substance/The level of expressed mRNA in the absence of chemical substance,yeast gene YGL001C,0.9
same,level of expressed mRNA in the presence/in the absence of chemical substance,yeast gene YGL012W,0.6
same,The level of expressed mRNA in the presence of chemical substance/The level of expressed mRNA in the absence of chemical substance,yeast gene YGL022W,4.0
same,The level of expressed mRNA in the presence of chemical substance/The level of expressed mRNA in the absence of chemical substance,yeast gene YGL104C,0.9
same,level of expressed mRNA in the presence/in the absence of chemical substance,yeast gene YGL115W,0.7
same,The level of expressed mRNA in the presence of chemical substance/The level of expressed mRNA in the absence of chemical substance,yeast gene YGL126W,2.8
same,The level of expressed mRNA in the presence of chemical substance/The level of expressed mRNA in the absence of chemical substance,yeast gene YGL154C,0.8
same,level of expressed mRNA in the presence/in the absence of chemical substance,yeast gene YGL205W,2.0
same,The level of expressed mRNA in the presence of chemical substance/The level of expressed mRNA in the absence of chemical substance,yeast gene YGL248W,1.8
same,The level of expressed mRNA in the presence of chemical substance/The level of expressed mRNA in the absence of chemical substance,yeast gene YGL253W,0.8
same,The level of expressed mRNA in the presence of chemical substance/The level of expressed mRNA in the absence of chemical substance,yeast gene YGR037C,1.5
same,The level of expressed mRNA in the presence of chemical substance/The level of expressed mRNA in the absence of chemical substance,yeast gene YGR060W,1.4
same,level of expressed mRNA in the presence/in the absence of chemical substance,yeast gene YGR096W,0.9
same,level of expressed mRNA in the presence/in the absence of chemical substance,yeast gene YGR191W,1.5
same,The level of expressed mRNA in the presence of chemical substance/The level of expressed mRNA in the absence of chemical substance,yeast gene YGR194C,0.6
same,level of expressed mRNA in the presence/in the absence of chemical substance,yeast gene YGR204W,1.6
same,level of expressed mRNA in the presence/in the absence of chemical substance,yeast gene YGR288W,0.8
same,level of expressed mRNA in the presence/in the absence of chemical substance,yeast gene YHR025W,2.1
same,The level of expressed mRNA in the presence of chemical substance/The level of expressed mRNA in the absence of chemical substance,yeast gene YHR037W,1.1
same,The level of expressed mRNA in the presence of chemical substance/The level of expressed mRNA in the absence of chemical substance,yeast gene YHR092C,0.2
same,The level of expressed mRNA in the presence of chemical substance/The level of expressed mRNA in the absence of chemical substance,yeast gene YHR111W,1.1
same,level of expressed mRNA in the presence/in the absence of chemical substance,yeast gene YHR123W,2.3
same,The level of expressed mRNA in the presence of chemical substance/The level of expressed mRNA in the absence of chemical substance,yeast gene YHR137W,2.8
same,The level of expressed mRNA in the presence of chemical substance/The level of expressed mRNA in the absence of chemical substance,yeast gene YHR174W,2.0
same,The level of expressed mRNA in the presence of chemical substance/The level of expressed mRNA in the absence of chemical substance,yeast gene YHR176W,1.5
same,The level of expressed mRNA in the presence of chemical substance/The level of expressed mRNA in the absence of chemical substance,yeast gene YHR190W,1.3
same,level of expressed mRNA in the presence/in the absence of chemical substance,yeast gene YHR210C,0.5
same,level of expressed mRNA in the presence/in the absence of chemical substance,yeast gene YIL006W,1.5
same,The level of expressed mRNA in the presence of chemical substance/The level of expressed mRNA in the absence of chemical substance,yeast gene YIL033C,1.0
same,The level of expressed mRNA in the presence of chemical substance/The level of expressed mRNA in the absence of chemical substance,yeast gene YIL045W,0.6
same,The level of expressed mRNA in the presence of chemical substance/The level of expressed mRNA in the absence of chemical substance,yeast gene YIL107C,1.0
same,The level of expressed mRNA in the presence of chemical substance/The level of expressed mRNA in the absence of chemical substance,yeast gene YIL154C,4.3
same,The level of expressed mRNA in the presence of chemical substance/The level of expressed mRNA in the absence of chemical substance,yeast gene YIL155C,1.4
same,The level of expressed mRNA in the presence of chemical substance/The level of expressed mRNA in the absence of chemical substance,yeast gene YIL167W,0.6
same,The level of expressed mRNA in the presence of chemical substance/The level of expressed mRNA in the absence of chemical substance,yeast gene YIR036C,1.1
